Experimental data from the CheMixHub viscosity set.

Assay: xn = mol fraction of the nth substance listed

c1ccncc1 + Cc1cccc(C)c1
viscosity [mPa·s], 101 kPa
Details | x2 = 0.1993 | x2 = 0.2997 | x2 = 0.3994 | x2 = 0.524 | x2 = 0.5987 | x2 = 0.7003 | x2 = 0.7968 | x2 = 0.8972
293.15 K | 0.8031 | 0.7468 | 0.7151 | 0.6612 | 0.6415 | 0.6114 | 0.59 | 0.5649
303.15 K | 0.7062 | 0.6592 | 0.6241 | 0.5859 | 0.5687 | 0.547 | 0.5279 | 0.5097
313.15 K | 0.6189 | 0.5815 | 0.5504 | 0.5173 | 0.5023 | 0.4843 | 0.4668 | 0.4544
323.15 K | 0.5442 | 0.5118 | 0.4851 | 0.4563 | 0.4433 | 0.428 | 0.4122 | 0.4019

c1ccncc1 + Cc1ccccc1C
viscosity [mPa·s], 101 kPa
Details | x2 = 0.1002 | x2 = 0.2001 | x2 = 0.2999 | x2 = 0.3993 | x2 = 0.4968 | x2 = 0.6002 | x2 = 0.6992 | x2 = 0.7985 | x2 = 0.8945
293.15 K | 0.9083 | 0.8811 | 0.8575 | 0.8434 | 0.8268 | 0.806 | 0.7925 | 0.7798 | 0.7769
303.15 K | 0.7933 | 0.7696 | 0.7498 | 0.7375 | 0.721 | 0.7069 | 0.6976 | 0.6881 | 0.6804
313.15 K | 0.7 | 0.6779 | 0.6586 | 0.6456 | 0.63 | 0.6195 | 0.6097 | 0.6015 | 0.595
323.15 K | 0.6145 | 0.5949 | 0.5776 | 0.5654 | 0.5525 | 0.5433 | 0.5347 | 0.528 | 0.5228

CCCCCCC(C)O (stereo not drawn) + Clc1ccccc1
viscosity [mPa·s], 101 kPa
Details | 298.15 K | 303.15 K
x2 = 0.0637 | 5.573 | 4.507
x2 = 0.1236 | 4.736 | 3.906
x2 = 0.1894 | 3.906 | 3.291
x2 = 0.2474 | 3.319 | 2.818
x2 = 0.3131 | 2.772 | 2.369
x2 = 0.374 | 2.378 | 1.981
x2 = 0.4525 | 1.947 | 1.641
x2 = 0.5014 | 1.737 | 1.467
x2 = 0.5867 | 1.452 | 1.238
x2 = 0.6813 | 1.203 | 1.08
x2 = 0.7429 | 1.085 | 1
x2 = 0.8098 | 0.968 | 0.929
x2 = 0.8776 | 0.872 | 0.867
x2 = 0.9446 | 0.803 | 0.786

C[N+](C)(CCO)CCO.[Cl-] + NC(N)=O
100 kPa, x1 = 0.5
Details | viscosity [mPa·s]
293.15 K | 3865
298.15 K | 2440
303.15 K | 1596
308.15 K | 1065
313.15 K | 724
318.15 K | 514
323.15 K | 368

C[N+](C)(C)CCO.NCCS(=O)(=O)[O-] + O
viscosity [mPa·s], 100 kPa
Details | x1 = 3.04e-05 | x1 = 5.1e-05 | x1 = 7.04e-05 | x1 = 9.62e-05 | x1 = 0.0001978 | x1 = 0.0004282 | x1 = 0.0006357 | x1 = 0.0009005 | x1 = 0.001375 | x1 = 0.001632
293.15 K | 1.014 | 1.017 | 1.019 | 1.022 | 1.028 | 1.036 | 1.041 | 1.046 | 1.052 | 1.054
298.15 K | 0.904 | 0.907 | 0.91 | 0.913 | 0.922 | 0.932 | 0.939 | 0.946 | 0.954 | 0.958
303.15 K | 0.811 | 0.814 | 0.817 | 0.82 | 0.828 | 0.839 | 0.846 | 0.853 | 0.861 | 0.863
308.15 K | 0.737 | 0.742 | 0.745 | 0.749 | 0.76 | 0.771 | 0.776 | 0.781 | 0.786 | 0.789
313.15 K | 0.675 | 0.68 | 0.684 | 0.688 | 0.699 | 0.709 | 0.715 | 0.72 | 0.723 | 0.724
